Test system: Candida albicans SC5314
Test: Susceptibility of Candida albicans, broth microdilution method
Format: cell-based
Details: 24 hours, replicate 1
Method: Susceptibility of Candida albicans SC5314 to milk EVs and milk EVs loaded with Amphotericin B (AmpB) was performed by the broth microdilution method, using RPMI-1640 medium and MOPS buffer in a concentration range from 200 nM and 0.39 nM for AmpB loaded EVs and equal particles/mL of unloaded EVs. AmpB alone was also tested at concentrations from 8 µM to 15.12 nM.
The broth micro dilution test is performed using sterile round bottomed 96 well microtiter plates. 50 μL of 1×PBS at pH 7.4 is added to Rows 1 to Row 7, except for Column 1 of Row 3 to Row 7. 100 μL of EVs (BMEV, BMEV-AmpB, GMEV and GMEV-AmpB) at 2× desired concentrations is added to Rows 4 to Row 7 of Column 1. 100 μL of AmpB at 2× desired concentration (i.e. 16 μM) is added to Row 3 of Column 1. 2-fold dilutions were performed by transferring 50 μL from Column 1 to Column 10 of Rows 3 to 7, and homogenised to ensure proper dilution of the compound by half. Row 1 was used as a blank for spectrophotometric readings and Row 2 is used as a growth control. After the plates are prepared, 2× inoculum concentration are prepared with a total cell concentration of 1e+3 to 5e+3 CFU/mL prepared in RPMI 1640 media (with glutamine, without bicarbonate, and with phenol red as a pH indicator) in MOPS according to CLSI media preparation guidelines. Each well of the microtiter plate was inoculated with 50 μL of the 2× inoculum to yield a final cell concentration of 0.5e+3 to 2.5e+3 CFU/mL in the wells. After inoculation, the plates are incubated at 35° C. for 24 hours. Post-incubation, the plates are read at 600 nm using the Thermo Scientific Multiskan Go, and data was recorded. Agitation prior to reading the plate will help with accurate readings.
10.4 g powdered RPMI 1640 medium (with glutamine and phenol red, without bicarbonate); 34.53 g MOPS (3-[N-morpholino] propanesulfonic acid) buffer.
Dissolve powdered medium in 900 mL distilled H2O. Add MOPS (final concentration of 0.165 mol/L) and stir until dissolved. While stirring, adjust the pH to 7.0 at 25° C. using 1 mol/L sodium hydroxide.
Add additional water to bring medium to a final volume of 1 L. Filter sterilize and store at 4° C. until use.
The steps for preparation of inoculum are as follows: • I. Candida albicans SC5314 was subcultured from sterile vials onto Sabouraud dextrose agar or Potato Dextrose agar and passaged to ensure purity and viability. The incubation temperature throughout was 35° C. • II. The inoculum was prepared by picking five colonies of ca. 1 mm in diameter from 24-hour old culture. The colonies were suspended in 1 mL of sterile 1×PBS at pH 7.4. A 10-fold dilution was prepared in PBS. 10 μL of the diluted inoculum with equal volume of Trypan Blue was mixed and counted using a haemocytometer. • III. The suspension should be vortexed for 15 seconds and the cell density adjusted by adding sufficient sterile 1×RPMI-1640 to yield a cell concentration of 1e+3 to 5e+3 CFU/mL.

SMILES: C[C@@H]1[C@H](O)[C@@H](C)/C=C/C=C/C=C/C=C/C=C/C=C/C=C/[C@H](O[C@@H]2O[C@H](C)[C@@H](O)[C@H](N)[C@@H]2O)C[C@@H]2O[C@](O)(C[C@@H](O)C[C@@H](O)[C@H](O)CC[C@@H](O)C[C@@H](O)CC(=O)O[C@H]1C)C[C@H](O)[C@H]2C(=O)O [AmpB, Amphotericin B]
- Abs (read at 600 nm) (AmpB concentration 15.12 nM): 0.13
- Abs (read at 600 nm) (AmpB concentration 31.25 nM): 0.15
- Abs (read at 600 nm) (AmpB concentration 62.5 nM): 0.13
- Abs (read at 600 nm) (AmpB concentration 125 nM): 0.15
- Abs (read at 600 nm) (AmpB concentration 250 nM): 0.13
- Abs (read at 600 nm) (AmpB concentration 500 nM): 0.08
- Abs (read at 600 nm) (AmpB concentration 1 μM): 0.08
- Abs (read at 600 nm) (AmpB concentration 2 μM): 0.00
- Abs (read at 600 nm) (AmpB concentration 4 μM): 0.00
- Abs (read at 600 nm) (AmpB concentration 8 μM): 0.00
